Assay [1] addresses T1, Porcine pancreatic amylase (Sus scrofa, UniProt P00690).
T1 sequence (P00690 16-511): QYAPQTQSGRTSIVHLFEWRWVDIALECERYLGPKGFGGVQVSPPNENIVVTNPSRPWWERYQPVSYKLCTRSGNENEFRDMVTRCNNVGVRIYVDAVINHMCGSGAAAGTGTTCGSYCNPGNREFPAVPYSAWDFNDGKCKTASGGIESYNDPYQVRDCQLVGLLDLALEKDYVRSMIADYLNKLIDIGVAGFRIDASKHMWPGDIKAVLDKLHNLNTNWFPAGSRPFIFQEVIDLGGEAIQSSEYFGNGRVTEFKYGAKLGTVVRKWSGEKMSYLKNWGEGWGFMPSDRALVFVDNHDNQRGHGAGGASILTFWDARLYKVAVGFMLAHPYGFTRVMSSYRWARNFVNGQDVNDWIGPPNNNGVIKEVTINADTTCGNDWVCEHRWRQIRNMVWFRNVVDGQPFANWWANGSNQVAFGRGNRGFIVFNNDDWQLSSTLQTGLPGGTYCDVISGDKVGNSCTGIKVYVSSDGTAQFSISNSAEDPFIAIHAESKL
Nature of the assay: In vitro α-amylase inhibition assay (starch substrate). Format: biochemical. The note with it: mean ± SE; starch 1%. The procedure:
(§1) Porcine pancreatic amylase, yeast α-glucosidase, and human recombinant aldose reductase were tested for enzyme inhibition using various substrates, such as starch (1%), pNPG (0.5 mM), and DL-glyceraldehyde (5 mM) for each enzyme. By comparing changes in the test sample absorbance levels to control values and computing inhibition percentages using the following formula, the degree of inhibition was ascertained: Inhibition (%) = [A×(control)] − [{A × (sample)}/{A × (control)} × 100].

In assay [2] the target is human recombinant aldose reductase (Homo sapiens, UniProt P15121). Nature of the assay: In vitro aldose reductase inhibition assay (DL-glyceraldehyde substrate). The format is biochemical. The procedure: as §1
The subject of the next assay is α-amylase (PDB-ID 1DHK). Details: method as in doi:10.3390/separations9090262, PMID 35335251. Conditions: docking of previous study; cited from earlier work.
Assay [3] relates to α-glucosidase (PDB ID: 3A4A). Details: method as in doi:10.3390/separations9090262, PMID 35335251. Conditions: docking of previous study; cited from earlier work.
Assay [4] deals with aldose reductase (PDB ID: 1IEI). Details: method as in doi:10.3390/separations9090262, PMID 35335251. Conditions: docking of previous study; cited from earlier work.
The mark [5] stands for this setting: mean ± SE, DL-glyceraldehyde 5 mM.

On to `CS/C(Nc1ccccc1)=C(\C#N)C(=O)Nc1ccc(C(N)=O)cc1` [Compound 5a], for which the IC50 in assay [1] is 94 µM; in assay [2] (setting [5]), 71.3 µM.
`N#CC(C(=O)Nc1ccc(C(N)=O)cc1)C(=NNC(=O)COc1ccc2ccccc2c1)Nc1ccccc1` (centres unmarked) [Compound 7a, 4-(2-cyano-3-(2-(2-(naphthalen-2-yloxy)acetyl)hydrazineylidene)-3-(phenylamino)propanamido)benzamide]: the IC50 was 43.1 µM in assay [1] and 42.6 µM in assay [2] (setting [5]).
Consider `N#CC(C(=O)Nc1ccc(C(N)=O)cc1)C(=NNC(=O)COc1ccnc2ccccc12)Nc1ccccc1` (centres unmarked) [Compound 7b, 4-(2-cyano-3-(phenylamino)-3-(2-(2-(quinolin-4-yloxy)acetyl)hydrazineylidene)propanamido)benzamide], for which the IC50 in assay [1] is 37.3 µM; in assay [2] (setting [5]), 40.6 µM.
In the case of `CCNC(=NNC(=O)COc1ccc2ccccc2c1)C(C#N)C(=O)Nc1ccc(C(N)=O)cc1` (centres unmarked) [Compound 7c, 4-(2-cyano-3-(ethylamino)-3-(2-(2-(naphthalen-2-yloxy)acetyl)hydrazineylidene)propanamido)benzamide], the IC50 in assay [1] was 57.1 µM; in assay [2] (setting [5]) it was 50.8 µM.
Regarding `CC(=O)c1ccc(NC(=O)C(C#N)/C(=N/NC(=O)COc2ccc3ccccc3c2)Nc2ccccc2)cc1` (centres unmarked) [Compound 7d, N-(4-acetylphenyl)-2-cyano-3-(2-(2-(naphthalen-2-yloxy)acetyl)hydrazineylidene)-3-(phenylamino)propenamide], the IC50 is 45.7 µM in assay [1] and 33.6 µM in assay [2] (setting [5]).
With `CC(=O)c1ccc(NC(=O)C(C#N)/C(=N/NC(=O)COc2ccnc3ccccc23)Nc2ccccc2)cc1` (centres unmarked) [Compound 7e, N-(4-acetylphenyl)-2-cyano-3-(phenylamino)-3-(2-(2-(quinolin-4-yloxy)acetyl) hydrazineylidene)propenamide], the half-inhibitory concentration (IC50) is 38.4 µM in assay [1] and 43 µM in assay [2] (setting [5]).
In the case of `CCN/C(=N\NC(=O)COc1ccc2ccccc2c1)C(C#N)C(=O)Nc1ccc(C(C)=O)cc1` (centres unmarked) [Compound 7f, N-(4-acetylphenyl)-2-cyano-3-(ethylamino)-3-(2-(2-(naphthalen-2-yloxy)acetyl) hydrazineylidene)propenamide], the IC50 in assay [1] was 61.8 µM; in assay [2] (setting [5]), 42.8 µM.
Turning to `CCN/C(=N\NC(=O)COc1ccnc2ccccc12)C(C#N)C(=O)Nc1ccc(C(C)=O)cc1` (centres unmarked) [Compound 7g, N-(4-acetylphenyl)-2-cyano-3-(ethylamino)-3-(2-(2-(quinolin-4-yloxy)acetyl) hydrazineylidene)propenamide], the IC50 in assay [1] was 36.3 µM; in assay [2] (setting [5]), 25.7 µM; in assay [2] (µg/mL value restated in µM), 25.8 µM.
Take `O=C(O)/C=C/c1ccc(O)c(O)c1` [caffeic acid]: the “binding affinity against α-amylase” value in the assay with α-amylase (PDB-ID 1DHK) is -8.1 kcal/mol. In addition, the “binding affinity against α-glucosidase” value in assay [3] is -8.2 kcal/mol. For the same compound, the “binding affinity against aldose reductase” value in assay [4] was -7.4 kcal/mol.

The term IC50 denotes the concentration that gives 50% inhibition.

(Values after PMC11679724, “Novel Quinoline- and Naphthalene-Incorporated Hydrazineylidene–Propenamide Analogues as Antidiabetic Agents: Design, Synthesis, and Computational Studies” (Pharmaceuticals, 2024).)
